Consider 13 compounds from ChEMBL document CHEMBL1145875, “Xylylated dimers of putrescine and polyamines: influence of the polyamine backbone on spermidine transport inhibition” (Bioorg Med Chem Lett, 2003).

In one test the test system is T47D. The test can be described thus: (§1) Inhibition of spermidine transport determined in T-47D human breast cancer cells. Format: functional, cell-based.
Broadly, the Km is the substrate concentration at which the rate is half of its maximum. For the compound `NCCCCNCCCN`, the Michaelis constant (Km) came out at 4.4 µM.

Another test has as its target T47D. Described as §1. Type of test: functional, cell-based.
The term Ki denotes a dissociation constant, usually derived from enzyme kinetics or from competition with a known ligand. The low end stands for tighter binding, the high end for weaker binding. For the compound `NCCCNCCCCN(CCCN)Cc1ccc(CN(CCCN)CCCCNCCCN)cc1`, the Ki was 1.1 µM.
Same read-out and setting: next, `NCCCCCCN(CCCCCCN)Cc1ccc(CN(CCCCCCN)CCCCCCN)cc1`: 9.4 µM; `NCCCCNCCCCN`: 2.7 µM.
Same read-out and setting: the figure for `NCCCNCCCCNCCCN` [SPERMINE] is 2.1 µM.
The same measure, in the same setting: next, `NCCCCCCNCCCCCCN`: 20.9 µM; `NCCCNCCCN` [NORSPERMIDINE]: 9.5 µM.
With `NCCCCCN(CCCCCN)Cc1ccc(CN(CCCCCN)CCCCCN)cc1`, the inhibition constant (Ki) is 2.8 µM.
On the same count and under the same terms, next, `NCCC(CN)NCc1ccc(CNC(CN)CCN)cc1` (stereo not drawn): 9.3 µM; `NCCCCN` [PUTRESCINE]: over 500 µM; `NCCCCCNCCCCCN`: 3.4 µM.
`NCCC(CN)OCc1ccc(COC(CN)CCN)cc1` (stereo not drawn) yielded a Ki of 12.8 µM.
Same read-out and setting: the figure for `NCCCCN(CCCCN)Cc1ccc(CN(CCCCN)CCCCN)cc1` is 2.8 µM.
